Laboratory results published in patent US20100267561A1, “HERBICIDAL PYRIDAZINONE DERIVATIVES” (priority 2007, published 2010).

Experiments:
Assay type in all cases: in vivo
[1] = tested on: eastern black (E.B.) nightshade (Solanum ptycanthum); assay: Test B pre-/postemergence plant response; settings: Preemergence
In short: (§1)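 Visual scoring from 0 (no effect) to 100 (complete control) against untreated controls was done 13 to 15 days after greenhouse treatment. Chemicals were formulated in a surfactant-containing non-phytotoxic solvent and applied to soil preemergence or to 1- to 4-leaf (2-18 cm) plants postemergence.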

[2] = tested on: blackgrass (Alopecurus myosuroides); assay: Test B pre-/postemergence plant response; settings: for Blackgrass plant response rating: 8 g ai/ha
In short: as §1

[3] = tested on: velvetleaf (Abutilon theophrasti); assay: Test B pre-/postemergence plant response; settings: for Velvetleaf plant response rating: 8 g ai/ha
In short: as §1

[4] = tested on: yellow nutsedge (Cyperus esculentus); assay: Test B pre-/postemergence plant response; settings: for Nutsedge, Yellow plant response rating: 8 g ai/ha
In short: as §1

[5] = tested on: bermudagrass (Cynodon dactylon); assay: Test B pre-/postemergence plant response; settings: for Bermudagrass plant response rating: 8 g ai/ha
In short: as §1

wild oat (Avena fatua) = assay: Test B pre-/postemergence plant response; settings: for Oat, Wild plant response rating: 8 g ai/ha
In short: as §1

corn (Zea mays) = assay: Test B pre-/postemergence plant response; settings: for Corn plant response rating: 8 g ai/ha
In short: as §1

[6] = tested on: morningglory (Ipomoea coccinea); assay: Test B pre-/postemergence plant response; settings: for Morningglory plant response rating: 8 g ai/ha
In short: as §1

[7] = tested on: giant foxtail (Setaria faberii); assay: Test B pre-/postemergence plant response; settings: for Foxtail, Giant plant response rating: 8 g ai/ha
In short: as §1

[8] = tested on: lambsquarters (Chenopodium album); assay: Test B pre-/postemergence plant response; settings: for Lambsquarters plant response rating: 8 g ai/ha
In short: as §1

[9] = tested on: chickweed (Stellaria media); assay: Test B postemergence plant response; settings: for Plant response rating, Chickweed: Postemergence
In short: (§2)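 Emerged plants, 1- to 4-leaf stage, treated; greenhouse 13–15 d; eye-scored vs untreated controls (0–100 scale).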

[10] = tested on: windgrass (Apera spica-venti); assay: Test B postemergence plant response; settings: for Plant response rating, Windgrass: Postemergence
In short: as §2

[11] = tested on: winter barley (Hordeum vulgare); assay: Test B postemergence plant response; settings: for Plant response rating, Barley: Postemergence, scale 0 to 100, 0 no effect, 100 complete control
In short: as §2

[12] = tested on: canarygrass (Phalaris minor); assay: Test B postemergence plant response; settings: for Plant response rating, Canarygrass: Postemergence
In short: as §2

[13] = tested on: barnyardgrass (Echinochloa crus-galli); assay: Test B flooded paddy test plant response
In short: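 Rice, umbrella sedge, ducksalad and barnyardgrass at 2-leaf stage; pots flooded to 3 cm, compounds applied into paddy water, depth held throughout. Greenhouse 13 to 15 days, then visual rating vs untreated controls on 0–100 scale (0 no effect, 100 complete control); dash means no test result.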

[14] = Postemergence, 16 g ai/ha, scale 0 to 100
[15] = Postemergence, 31 g ai/ha, scale 0 to 100, 0 no effect, 100 complete control
[16] = Postemergence, 62 g ai/ha, scale 0 to 100, 0 no effect, 100 complete control
[17] = Preemergence, 16 g ai/ha, scale 0 to 100 (0 no effect, 100 complete control)
[18] = Preemergence, 31 g ai/ha, 0 to 100 scale, 0 no effect, 100 complete control
[19] = Preemergence, 62 g ai/ha, scale 0 to 100
[20] = Preemergence, 31 g ai/ha, scale 0 to 100 (0 no effect, 100 complete control)
[21] = 8 g ai/ha, postemergence, 0-100 scale
[22] = 31 g ai/ha, scale 0 to 100, 0 no effect, 100 complete control
[23] = 62 g ai/ha, scale 0 to 100, 0 no effect, 100 complete control

## CCc1cc(-c2ccc(Cl)cc2)nn1-c1c(OC(=O)C(C)(C)C)cnn(C)c1=O [Compound 40]
[1]; 16 g ai/ha, scale 0 to 100 (0 no effect, 100 complete control)
  Plant response rating, Nightshade, E. B.: 0
[1]; 31 g ai/ha, scale 0 to 100 (0 no effect, 100 complete control)
  Plant response rating, Nightshade, E. B.: 0
[1]; 62 g ai/ha, scale 0 to 100
  Plant response rating, Nightshade, E. B.: 0
[1]; 8 g ai/ha, scale 0 to 100
  Nightshade, E. B. plant response rating: 0
[2]; postemergence, 0-100 scale
  Blackgrass plant response rating: 85
[2]; [14]
  Plant response rating, Blackgrass: 90
[2]; [15]
  Plant response rating, Blackgrass: 90
[2]; [16]
  Plant response rating, Blackgrass: 90
[2]; [17]
  Plant response rating, Blackgrass: 95
[2]; [18]
  Plant response rating, Blackgrass: 95
[2]; [19]
  Plant response rating, Blackgrass: 95
[2]; Preemergence, scale 0 to 100
  Blackgrass plant response rating: 95
[3]; postemergence, 0-100 scale
  Velvetleaf plant response rating: 0
[3]; [14]
  Plant response rating, Velvetleaf: 0
[3]; [16]
  Plant response rating, Velvetleaf: 0
[3]; [17]
  Plant response rating, Velvetleaf: 0
[3]; [20]
  Plant response rating, Velvetleaf: 0
[3]; Preemergence, 62 g ai/ha, 0 to 100 scale, 0 no effect, 100 complete control
  Plant response rating, Velvetleaf: 0
[3]; Preemergence, scale 0 to 100
  Velvetleaf plant response rating: 0
[4]; postemergence, 0-100 scale
  Nutsedge, Yellow plant response rating: 0
[4]; [14]
  Plant response rating, Nutsedge, Yellow: 0
[4]; [15]
  Plant response rating, Nutsedge, Yellow: 0
[4]; [16]
  Plant response rating, Nutsedge, Yellow: 0
[4]; [17]
  Plant response rating, Nutsedge, Yellow: 0
[4]; [20]
  Plant response rating, Nutsedge, Yellow: 0
[4]; [19]
  Plant response rating, Nutsedge, Yellow: 0
[4]; Preemergence, scale 0 to 100
  Nutsedge, Yellow plant response rating: 0
[5]; postemergence, 0-100 scale
  Bermudagrass plant response rating: 0
[5]; [14]
  Plant response rating, Bermudagrass: 60
[5]; [15]
  Plant response rating, Bermudagrass: 65
[5]; [16]
  Plant response rating, Bermudagrass: 98
[5]; Preemergence, scale 0 to 100 (0 no effect, 100 complete control)
  Bermudagrass plant response rating: 0
[5]; [17]
  Plant response rating, Bermudagrass: 90
[5]; [18]
  Plant response rating, Bermudagrass: 100
[5]; [19]
  Plant response rating, Bermudagrass: 100
Wild oat (Avena fatua); postemergence, 0-100 scale
  Oat, Wild plant response rating: 95
Wild oat (Avena fatua); [14]
  Plant response rating, Oat, Wild: 100
Wild oat (Avena fatua); [15]
  Plant response rating, Oat, Wild: 100
Wild oat (Avena fatua); [16]
  Plant response rating, Oat, Wild: 100
Wild oat (Avena fatua); [17]
  Plant response rating, Oat, Wild: 85
Wild oat (Avena fatua); [20]
  Plant response rating, Oat, Wild: 90
Wild oat (Avena fatua); [19]
  Plant response rating, Oat, Wild: 95
Wild oat (Avena fatua); Preemergence, scale 0 to 100
  Oat, Wild plant response rating: 60
Corn (Zea mays); postemergence, 0-100 scale
  Corn plant response rating: 0
Corn (Zea mays); [14]
  Plant response rating, Corn: 0
Corn (Zea mays); [15]
  Plant response rating, Corn: 100
Corn (Zea mays); [16]
  Plant response rating, Corn: 100
Corn (Zea mays); [17]
  Plant response rating, Corn: 75
Corn (Zea mays); [18]
  Plant response rating, Corn: 85
Corn (Zea mays); [19]
  Plant response rating, Corn: 95
Corn (Zea mays); Preemergence, scale 0 to 100
  Corn plant response rating: 55
[6]; postemergence, 0-100 scale
  Morningglory plant response rating: 0
[6]; [14]
  Plant response rating, Morningglory: 0
[6]; [15]
  Plant response rating, Morningglory: 0
[6]; [16]
  Plant response rating, Morningglory: 0
[6]; [17]
  Plant response rating, Morningglory: 0
[6]; [20]
  Plant response rating, Morningglory: 0
[6]; [19]
  Plant response rating, Morningglory: 0
[6]; Preemergence, scale 0 to 100
  Morningglory plant response rating: 0
[7]; postemergence, 0-100 scale
  Foxtail, Giant plant response rating: 100
[7]; [14]
  Plant response rating, Foxtail, Giant: 100
[7]; [15]
  Plant response rating, Foxtail, Giant: 100
[7]; [16]
  Plant response rating, Foxtail, Giant: 100
[7]; [17]
  Plant response rating, Foxtail, Giant: 100
[7]; [18]
  Plant response rating, Foxtail, Giant: 100
[7]; [19]
  Plant response rating, Foxtail, Giant: 100
[7]; Preemergence, scale 0 to 100
  Foxtail, Giant plant response rating: 100
[8]; postemergence, 0-100 scale
  Lambsquarters plant response rating: 0
[8]; [14]
  Plant response rating, Lambsquarters: 0
[8]; [15]
  Plant response rating, Lambsquarters: 0
[8]; [16]
  Plant response rating, Lambsquarters: 0
[8]; [17]
  Plant response rating, Lambsquarters: 0
[8]; [18]
  Plant response rating, Lambsquarters: 0
[8]; [19]
  Plant response rating, Lambsquarters: 0
[8]; Preemergence, scale 0 to 100
  Lambsquarters plant response rating: 0
[9]; [21]
  Chickweed plant response rating: 0
[9]; 16 g ai/ha, scale 0 to 100
  Plant response rating, Chickweed: 0
[9]; [22]
  Plant response rating, Chickweed: 0
[9]; [23]
  Plant response rating, Chickweed: 0
[10]; [21]
  Windgrass plant response rating: 70
[10]; 16 g ai/ha, scale 0 to 100
  Plant response rating, Windgrass: 80
[10]; [23]
  Plant response rating, Windgrass: 100
[11]; [21]
  Barley plant response rating: 35
[11]; 16 g ai/ha
  Plant response rating, Barley: 40
[11]; 31 g ai/ha
  Plant response rating, Barley: 70
[11]; 62 g ai/ha
  Plant response rating, Barley: 70
[12]; [21]
  Canarygrass plant response rating: 20
[12]; 16 g ai/ha, scale 0 to 100
  Plant response rating, Canarygrass: 30
[12]; [22]
  Plant response rating, Canarygrass: 80
[12]; [23]
  Plant response rating, Canarygrass: 80
[13]; Flood (flooded paddy test), 62 g ai/ha, scale 0 to 100, 0 no effect, 100 complete control
  Plant response rating, Barnyardgrass: 85
[13]; Flood (flooded paddy test), 125 g ai/ha, scale 0 to 100, 0 no effect, 100 complete control
  Plant response rating, Barnyardgrass: 100
[13]; Flood (flooded paddy test), 250 g ai/ha, scale 0 to 100, 0 no effect, 100 complete control
  Plant response rating, Barnyardgrass: 100
[13]; Flood, 31 g ai/ha, scale 0 to 100
  Plant response rating, Barnyardgrass: 60
